The target of one assay is T1, PDGF β-receptor (Sus scrofa, UniProt F1RL75).
T1 construct: PDGF-BB stimulated; immunoprecipitated with PDGF beta-receptor specific antiserum R3
Description: PDGF induced PDGFR autophosphorylation in intact SMC cells. Format: cell-based. The following applies: porcine arterial SMC. Here is the method: Effect of tyrphostins on PDGF induced PDGFR autophosphorylation in intact SMC cells: Subconfluent porcine arterial smooth muscle cells, cultivated in Dulbecco's modified Eagle's medium (DMEM) supplemented with 15% fetal calf serum (FCS), were synchronized for 20 hours in a medium containing 2% FCS. […] After stimulation, the cells were solubilized in Nonidet P-40 (1%) containing lysis buffer.
The analysis of PDGF p-receptor phosphorylation was performed as follows. Cell lysates were subjected to immunoprecipitation using the PDGF β-receptor specific antiserum R3 [5]. The percipitates were subjected to polyacrylamide (7.5%) gel electrophoresis in presence of sodium deducyl sulfate (SDS-PAGE) and were thereafter blotted onto a nitrocellulose membrane (Hybond C-EXTRA, Amersham). Phosphorylated proteins were detected by immunoblotting using the horseradish-peroxidase conjugated phosphotyrosine antibody RC20H (Transduction Laboratories), followed by chemoluminescence-based detection (ECL, Amersham) and autoradiography.
Detection of receptor proteins was performed as follows. Cell lysates were subjected to immunoprecipitation using the PDGF β-receptor specific antiserum R3 [5], as described above, and the percipitates washed three times and thereafter subjected to SDS-PAGE (7.5%) and blotting onto a nitrocellulose membrane (Hybond C-EXTRA, Amersham). Receptor proteins were detected by immunoblotting using the horseradish-peroxidase conjugated donkey anti-rabbit antibody (Amersham), followed by chemoluminescence-based detection (ECL, Amersham) and autoradiography.

In a further assay the test system is PDGFR. Description: PDGFR autophosphorylation, isolated membranes or intact Swiss 3T3 cells. The assay is classed as biochemical. The following applies: read-out: IC50 (50% inhibition of phosphorylation) PDGFR. On the procedure: Assay of receptor autophosphorylation in intact 3T3 cells: Confluent Swiss 3T3 cells in 24-well plates (Nunc) were incubated for 20-24 hours in serum-free DMEM. Subsequently, tyrphostins were added at concentrations ranging from 0 to 100 μM (final DMSO concentration, 0.5%) and the incubation was continued for 6-8 hours. The cells were then stimulated with 100 ng/ml PDGF-BB for 5 min at room temperature or 600 ng/ml EGF for 2.5 min on ice. The growth factor treatment was terminated by washing twice with ice-cold PBS and the cells were scraped off the wells in 60 μl lysis buffer containing 20 mM Hepes (pH 7.4), 150 mM NaCl, 1% Triton X-100, 10 mM sodium pyrophosphate, 50 mM NaF, 2 mM sodium-o-vanadate, 20 μm zinc acetate, 10 nM EDTA, 2 mM [ethylenebis(oxyethilenenitrilo)] tetraacetic acid, 1 mM phenylmethylsulfonyl fluoride, and 5 μg/ml leupeptin.
The cell lysates were clarified by centrifugation (cooled microfuge, 17,000 rpm, 15 min) and analyzed by SDS-PAGE (6.5% gels) and immunoblotting with anti-phosphotyrosine antibodies (either PY 20, ICN, and subsequently a peroxidase-coupled secondary antibody, or RC20-peroxidase conjugate, Affinity, Nottingham, United Kingdom). The blots were developed with a chemiluminescence detection system (Western Light, Tropix, or ECL, Amersham). In some experiments PDGF receptors were immunoprecipitated with PDGF-R3 or DIG-1 antibodies as described prior to the analysis by immunoblotting with anti-phosphotyrosine antibodies.
Membrane autophosphorylation assays: Membranes were prepared from confluent cultures of Swiss 3T3 cells as described. For measuring receptor autophosphorylation, 10 μg membrane protein per assay were incubated for 20 min on ice in the presence of 1.2 μg/ml EGF or 2 μg/ml PDGF, or both; 50 mM Hepes (pH 7.5); and 3 mm MnCl2 (final concentrations) in a volume of 45 μl. […] For quantification of radioactivity in electrophoresis gels, a Phospho-Imager (Molecular Dynamics, Fuji, or Bio-Rad) was used according to the instructions of the manufacturers. […]

The target of another assay is T2, SRC kinase (Gallus gallus, UniProt P00523, Y527F).
T2 construct: expressed in transfected cells; host or cells: NIH 3T3, stably transfected (gift of S. Courtneidge, Heidelberg)
Description: Src kinase activity assay (immunoprecipitate from src-transformed NIH 3T3 cells). Format: biochemical, chicken. Here is the method:
Src kinase activity assay: src-transformed NIH 3T3 cells were grown in 24-well plates to confluency; rinsed twice with a solution containing 20 mM Tris, 0.1 mM sodium-o-vanadate, and 150 mM NaCl (pH 7.5); and lysed in 100 μl/well of lysis buffer containing 20 mM Tris (pH 8.0), 150 mM NaCl, 1% Nonidet P-40, 2.5 mM EDTA, 10 mM NaF, 1% trasylol, and 20 μm leupeptin. The lysate was clarified by centrifugation and subjected to immunoprecipitation with the anti-Src monoclonal antibody MAb 327 (Oncogene Science; 0.5 μg antibody/80 μg protein) for 1 hour at 4° C. Then, goat anti-mouse IgG (Sigma; 0.2 μg per 0.5 μg monoclonal antibody 327) was added and incubation was continued for 30 mi followed by another 40 min of incubation with 10 μl of protein A-Sepharose Cl-4B (Pharmacia). The immunoprecipitates were washed five times with the lysis buffer and twice with kinase buffer containing 40 mM Hepes (pH 7.4), 0.5 mM dithiothreitol, 5 mM MnCl2, and 0.1 mM sodium-o-vanadate. The immunoprecipitates were suspended in kinase buffer and aliquots corresponding to 40 μg of cell lysate protein were preincubated with or without tyrphostin for 15 min at 30° C. Then, the kinase reaction was performed in the presence of 2 μg of acid-treated enolase and 10 μCi of [γ-^32 P]ATP (2 μM) in a final volume of 30 μl. The reaction was terminated by addition of SDS-PAGE sample buffer (6% SDS, 30% β-mercaptoetlhanol, 40% glycerol, and 0.5 mg/ml bromophenol blue) and the incorporation of radioactivity in the enolase was analyzed by SDS-PAGE and autoradiography as well as Phosphor-Imager quantification.

The next assay concerns the target T3, EGFR (Mus musculus, UniProt Q01279).
T3 construct: Membranes were prepared from confluent cultures of Swiss 3T3 cells; endogenous in cells; host or cells: Swiss 3T3 (obtained from E. Rozengurt, London)
Description: EGFR autophosphorylation, isolated membranes or intact Swiss 3T3 cells. The following applies: read-out: IC50 (50% inhibition of phosphorylation) EGFR. The assay is classed as biochemical.

Assay [1] concerns porcine aortic smooth muscle cells (SMC). Kind of assay: Inhibition of cell proliferation and recovery, porcine SMC. Format: cell-based. The following applies: for inhibition at 10 µM: Sus scrofa. Here is the method: Smooth muscle cells (SMC) were obtained under aseptic conditions from porcine abdominal aortas, and human internal mammary arteries (IMA). Specimens from the operating room were transferred on ice to the tissue culture room. Each artery was cut open and the endothelial surface mechanically scraped. […] The tissue fragments were then placed in an incubator at 37° C. under 9% CO2 atmosphere until SMC outgrowth was detected (typically within 3-7 days). […] For experiments testing the effect of tyrphostins on growth inhibition and recovery (see below), SMC from passages 1-3 were replated in 15 mm wells pretreated with 3 μg/cm^2 fibronectin (Biological Industries, Kibbutz Beit Haemek, Israel) at 15,000 cells/well.
Inhibition of cell proliferation and recovery: Monolayer cell growth inhibition and recovery experiments were repeated 3 or 4 times. Each experiment was performed in triplicate. […] Cultures were treated with a tyrphostin (10 μM) dissolved in 0.1% DMSO on days 1 and 3. On day 6, cultures were washed and the cells allowed to recover. Typically cells were counted on days 3 and 5 for inhibition, and on days 7, 10 and 15 for recovery, other schedules were also employed as reported below.

Where two headings read alike, the source gives them in different places.

T1 sequence (F1RL75 109-1181): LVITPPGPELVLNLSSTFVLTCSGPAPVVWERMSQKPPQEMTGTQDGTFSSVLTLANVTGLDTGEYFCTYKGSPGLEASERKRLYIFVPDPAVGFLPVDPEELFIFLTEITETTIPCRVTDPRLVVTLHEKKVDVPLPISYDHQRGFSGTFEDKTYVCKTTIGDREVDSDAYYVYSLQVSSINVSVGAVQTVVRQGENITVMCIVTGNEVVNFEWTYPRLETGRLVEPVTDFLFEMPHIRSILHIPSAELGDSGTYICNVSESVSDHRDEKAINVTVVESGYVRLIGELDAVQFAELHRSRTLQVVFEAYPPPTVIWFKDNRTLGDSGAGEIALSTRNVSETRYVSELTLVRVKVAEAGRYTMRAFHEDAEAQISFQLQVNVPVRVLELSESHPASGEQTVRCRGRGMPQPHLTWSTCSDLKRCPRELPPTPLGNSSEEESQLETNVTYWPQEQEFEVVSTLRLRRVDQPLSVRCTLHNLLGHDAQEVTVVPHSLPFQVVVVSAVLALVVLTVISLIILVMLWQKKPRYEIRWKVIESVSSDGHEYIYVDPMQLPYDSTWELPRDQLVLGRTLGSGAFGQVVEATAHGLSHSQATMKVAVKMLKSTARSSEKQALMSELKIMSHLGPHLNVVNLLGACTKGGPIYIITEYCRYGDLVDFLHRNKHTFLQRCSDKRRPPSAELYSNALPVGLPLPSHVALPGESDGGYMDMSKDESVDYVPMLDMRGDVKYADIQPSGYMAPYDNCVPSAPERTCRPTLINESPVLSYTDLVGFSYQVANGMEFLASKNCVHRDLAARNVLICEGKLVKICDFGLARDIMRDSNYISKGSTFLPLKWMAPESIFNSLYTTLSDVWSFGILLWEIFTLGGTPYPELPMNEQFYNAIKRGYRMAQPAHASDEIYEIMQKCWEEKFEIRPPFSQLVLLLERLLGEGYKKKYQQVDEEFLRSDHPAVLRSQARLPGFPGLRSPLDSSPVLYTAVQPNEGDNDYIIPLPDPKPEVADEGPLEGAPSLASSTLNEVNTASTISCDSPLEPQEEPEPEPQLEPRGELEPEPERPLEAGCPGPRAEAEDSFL
T3 sequence (Q01279 25-1210): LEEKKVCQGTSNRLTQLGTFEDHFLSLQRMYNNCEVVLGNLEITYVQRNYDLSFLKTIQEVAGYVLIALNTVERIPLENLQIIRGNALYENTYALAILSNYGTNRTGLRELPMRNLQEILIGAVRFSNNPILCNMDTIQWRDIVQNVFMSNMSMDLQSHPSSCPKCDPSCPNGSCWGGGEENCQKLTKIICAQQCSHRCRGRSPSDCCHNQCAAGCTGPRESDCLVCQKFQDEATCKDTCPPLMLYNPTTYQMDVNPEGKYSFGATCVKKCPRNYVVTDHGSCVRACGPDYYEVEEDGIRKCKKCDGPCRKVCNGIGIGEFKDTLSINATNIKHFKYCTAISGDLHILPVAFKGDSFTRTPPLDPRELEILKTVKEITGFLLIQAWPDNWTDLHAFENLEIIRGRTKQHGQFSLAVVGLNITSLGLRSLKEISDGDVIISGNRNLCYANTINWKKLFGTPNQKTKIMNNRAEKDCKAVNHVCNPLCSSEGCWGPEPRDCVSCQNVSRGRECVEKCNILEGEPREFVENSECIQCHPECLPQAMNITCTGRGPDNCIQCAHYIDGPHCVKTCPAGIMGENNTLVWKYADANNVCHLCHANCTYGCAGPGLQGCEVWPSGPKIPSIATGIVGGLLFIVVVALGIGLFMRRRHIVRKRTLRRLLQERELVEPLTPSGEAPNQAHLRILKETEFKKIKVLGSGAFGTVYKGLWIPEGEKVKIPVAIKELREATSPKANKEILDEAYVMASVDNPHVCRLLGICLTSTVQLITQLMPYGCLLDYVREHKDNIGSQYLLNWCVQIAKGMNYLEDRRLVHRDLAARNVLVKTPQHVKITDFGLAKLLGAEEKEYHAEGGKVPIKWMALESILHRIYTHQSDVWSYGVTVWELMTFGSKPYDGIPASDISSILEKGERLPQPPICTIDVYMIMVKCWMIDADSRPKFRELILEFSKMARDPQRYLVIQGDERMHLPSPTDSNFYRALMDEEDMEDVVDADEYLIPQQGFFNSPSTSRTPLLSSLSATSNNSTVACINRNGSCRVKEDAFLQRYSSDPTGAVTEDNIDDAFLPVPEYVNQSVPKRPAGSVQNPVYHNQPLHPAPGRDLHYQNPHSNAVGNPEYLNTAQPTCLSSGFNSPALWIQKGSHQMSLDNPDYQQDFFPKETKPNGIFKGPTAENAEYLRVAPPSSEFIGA
Description for EGFR: Membrane autophosphorylation assays: Membranes were prepared from confluent cultures of Swiss 3T3 cells as described [22]. For measuring receptor autophosphorylation, 10 μg membrane protein per assay were incubated for 20 min on ice in the presence of 1.2 μg/ml EGF or 2 μg/ml PDGF, or both; 50 mM Hepes (pH 7.5); and 3 mm MnCl2 (final concentrations) in a volume of 45 μl. In order to test the effects and determine the IC50 value of various tyrphostins, these were added in a volume of 0.5 μl (in DMSO; final concentration, 0.5%) 15 min before addition of the growth factors, in a range of concentrations. […] For quantification of radioactivity in electrophoresis gels, a Phospho-Imager (Molecular Dynamics, Fuji, or Bio-Rad) was used according to the instructions of the manufacturers. […]

Turning to `Cc1cc2ncc(-c3cccs3)nc2cc1C` [AG1990], the “level of PDGF β-receptor protein present in the cells” value at PDGF β-receptor is reported as “without affecting the level”. In addition, the “inhibition of PDGF-BB induced PDGF β-receptor tyrosine-phosphorylation” value against PDGF β-receptor (tyrphostin 10 μM, 60 min preincubation, PDGF-BB 100 ng/ml) is on record as “completely inhibited”. For the same compound, the IC50 (as a rule, the concentration needed to halve the response being measured) is 1 µM with PDGFR, 20 µM against SRC kinase and above 30 µM at EGFR. For the same compound, the inhibition at 10 µM was 50% in assay [1] (120 h, by day 5 (day given for AG1295 and AG1992), read-out: reduction in SMC count / inhibition of SMC growth over control); 50% in assay [1] (Table 2, read-out: mean reduction in SMC count compared to control cells (maximal inhibition in SMC growth)). The “reversibility of the inhibitory effect / recovery of SMC growth after washout” value in assay [1] (porcine SMC, cultures washed, cells allowed to recover) is “completely reversible”.
